Experimental data from patent US9567304B2, “Quinazolinedione derivative” (Chugai Seiyaku Kabushiki Kaisha, priority 2012, dated 2017).

System: human endometrial cancer cell line MFE-280
Test: Measurement of antitumor effect in MFE-280 cancer-bearing mice
Format: in vivo
Details: 200 mg/kg, orally once daily, MFE-280 subcutaneous xenograft in BALB/c nude mice, 11th day after start of administration

CCS(=O)(=O)c1ccc(Cl)cc1Cn1c(=O)[nH]c2c(Cl)c(CN3CCNCC3)c(C(F)(F)F)cc2c1=O [Compound F-1, 8-Chloro-3-(5-chloro-2-ethanesulfonyl-benzyl)-7-piperazin-1-ylmethyl-6-trifluoromethyl-1H-quinazoline-2,4-dione]
Antitumor effect TGI after 11 days (%): 61%
